Laboratory results from the NIST ThermoML archive (doi:10.1021/je500936y).
Numbers after ± are expanded uncertainties.

Legend:
[1] = 100 kPa, Liquid; for speed of sound: Frequency=3 MHz, Sing-around technique in a fixed-path interferometer; for mass density: Vibrating tube method
[2] = refractive index (Na D-line) (dimensionless); conditions: 100 kPa, Liquid, Standard Abbe refractometry
[3] = xn = mol fraction of the nth substance listed; conditions: 100 kPa, Liquid, x1 = 1; for speed of sound: Frequency=3 MHz, Sing-around technique in a fixed-path interferometer; for mass density: Vibrating tube method
[4] = refractive index (Na D-line) (dimensionless); xn = mol fraction of the nth substance listed; conditions: 100 kPa, Liquid, Standard Abbe refractometry, x1 = 1

Row | SMILES | speed of sound ([1]; 298.15 K) [m/s] | mass density ([1]; 298.15 K) [kg/m3] | speed of sound ([1]; 303.15 K) [m/s] | mass density ([1]; 303.15 K) [kg/m3] | speed of sound ([1]; 308.15 K) [m/s] | mass density ([1]; 308.15 K) [kg/m3] | speed of sound ([1]; 313.15 K) [m/s] | mass density ([1]; 313.15 K) [kg/m3] | speed of sound ([1]; 318.15 K) [m/s] | mass density ([1]; 318.15 K) [kg/m3] | speed of sound ([1]; 323.15 K) [m/s] | mass density ([1]; 323.15 K) [kg/m3] | refractive index ([2]; 298.15 K) | refractive index ([2]; 303.15 K) | refractive index ([2]; 308.15 K) | refractive index ([2]; 313.15 K) | refractive index ([2]; 318.15 K) | refractive index ([2]; 323.15 K) | also measured
1 | CCCCn1cc[n+](C)c1.F[B-](F)(F)F [1-butyl-3-methylimidazolium tetrafluoroborate] | 1565.1 ± 1.3 | 1198.78 ± 0.39 | 1553.2 ± 1.2 | 1195.18 ± 0.39 | 1541.3 ± 1.2 | 1191.6 ± 0.39 | 1529.7 ± 1.2 | 1188.04 ± 0.38 | 1518.2 ± 1.2 | 1184.5 ± 0.38 | 1506.8 ± 1.2 | 1180.98 ± 0.38 | 1.42058 ± 0.00087 | 1.41913 ± 0.00087 | 1.41764 ± 0.00087 | 1.41621 ± 0.00087 | 1.41472 ± 0.00087 | 1.4133 ± 0.00087 | –
2 | CCCCn1cc[n+](C)c1.F[B-](F)(F)F [1-butyl-3-methylimidazolium tetrafluoroborate] + C=CN1CCCC1=O | – | – | – | – | – | – | – | – | – | – | – | – | – | – | – | – | – | – | speed of sound ([3]; 298.15 K): 1565.1 ± 1.3 m/s; mass density ([3]; 298.15 K): 1198.78 ± 0.39 kg/m3; speed of sound ([3]; 303.15 K): 1553.2 ± 1.2 m/s; mass density ([3]; 303.15 K): 1195.18 ± 0.39 kg/m3; speed of sound ([3]; 308.15 K): 1541.3 ± 1.2 m/s; mass density ([3]; 308.15 K): 1191.6 ± 0.39 kg/m3; speed of sound ([3]; 313.15 K): 1529.7 ± 1.2 m/s; mass density ([3]; 313.15 K): 1188.04 ± 0.38 kg/m3; speed of sound ([3]; 318.15 K): 1518.2 ± 1.2 m/s; mass density ([3]; 318.15 K): 1184.5 ± 0.38 kg/m3; speed of sound ([3]; 323.15 K): 1506.8 ± 1.2 m/s; mass density ([3]; 323.15 K): 1180.98 ± 0.38 kg/m3; refractive index ([4]; 298.15 K): 1.42058 ± 0.00087; refractive index ([4]; 303.15 K): 1.41913 ± 0.00087; refractive index ([4]; 308.15 K): 1.41764 ± 0.00087; refractive index ([4]; 313.15 K): 1.41621 ± 0.00087; refractive index ([4]; 318.15 K): 1.41472 ± 0.00087; refractive index ([4]; 323.15 K): 1.4133 ± 0.00087
3 | C=CN1CCCC1=O [N-vinylpyrrolidone] | 1521.5 ± 3.1 | 1039.36 ± 2 | 1502.5 ± 3.1 | 1034.95 ± 2 | 1483.7 ± 3.1 | 1030.55 ± 2 | 1465 ± 3.1 | 1026.14 ± 2 | 1446.5 ± 3.1 | 1021.73 ± 2 | 1428.1 ± 3.1 | 1017.33 ± 1.9 | 1.51119 ± 0.001 | 1.50886 ± 0.001 | 1.5065 ± 0.001 | 1.50415 ± 0.001 | 1.50181 ± 0.001 | 1.49948 ± 0.001 | –
